Experiment in all cases: Dundee kinase panel
Holding throughout (assay type): biochemical
Conditions in all cases: for remaining activity at 1 µM: read-out: residual activity

One assay has as its target T1, RSK2 (Homo sapiens, UniProt P51812).
T1 construct: lines 1-140) and Reaction Biology
The procedure: (§1) Compounds were screened at 1 μM. For key hits, pIC50 values were then determined by HTRF as above. […] Stability in mouse and human liver microsomes was determined by Cyprotex.

In a further assay the target is T2, PKCz (Homo sapiens, UniProt Q05513).
T2 construct: lines 1-140) and Reaction Biology
T2 sequence (Q05513 1-592): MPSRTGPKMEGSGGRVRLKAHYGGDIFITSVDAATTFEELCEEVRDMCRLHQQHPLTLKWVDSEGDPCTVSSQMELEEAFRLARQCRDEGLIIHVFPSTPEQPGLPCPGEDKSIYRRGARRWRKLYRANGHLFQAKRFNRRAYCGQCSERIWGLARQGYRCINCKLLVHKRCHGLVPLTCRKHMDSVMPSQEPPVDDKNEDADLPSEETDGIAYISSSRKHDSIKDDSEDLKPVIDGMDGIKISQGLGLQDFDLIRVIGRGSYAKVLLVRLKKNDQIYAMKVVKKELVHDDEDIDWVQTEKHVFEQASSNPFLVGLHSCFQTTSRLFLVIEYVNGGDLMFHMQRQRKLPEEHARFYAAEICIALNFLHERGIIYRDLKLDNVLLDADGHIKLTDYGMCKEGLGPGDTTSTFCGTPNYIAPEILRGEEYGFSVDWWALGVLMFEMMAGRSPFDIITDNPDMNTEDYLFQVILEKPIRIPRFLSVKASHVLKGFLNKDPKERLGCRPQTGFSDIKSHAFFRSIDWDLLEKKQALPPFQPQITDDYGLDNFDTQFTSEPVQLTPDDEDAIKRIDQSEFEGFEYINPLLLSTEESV
Here is the method:
as §1

The target in a further assay is T3, JNK2 (Homo sapiens, UniProt P45984).
T3 construct: lines 1-140) and Reaction Biology
The procedure:
as §1

A further assay addresses T4, ERK8 (Homo sapiens, UniProt Q8TD08).
T4 construct: lines 1-140) and Reaction Biology
T4 sequence (Q8TD08 1-544): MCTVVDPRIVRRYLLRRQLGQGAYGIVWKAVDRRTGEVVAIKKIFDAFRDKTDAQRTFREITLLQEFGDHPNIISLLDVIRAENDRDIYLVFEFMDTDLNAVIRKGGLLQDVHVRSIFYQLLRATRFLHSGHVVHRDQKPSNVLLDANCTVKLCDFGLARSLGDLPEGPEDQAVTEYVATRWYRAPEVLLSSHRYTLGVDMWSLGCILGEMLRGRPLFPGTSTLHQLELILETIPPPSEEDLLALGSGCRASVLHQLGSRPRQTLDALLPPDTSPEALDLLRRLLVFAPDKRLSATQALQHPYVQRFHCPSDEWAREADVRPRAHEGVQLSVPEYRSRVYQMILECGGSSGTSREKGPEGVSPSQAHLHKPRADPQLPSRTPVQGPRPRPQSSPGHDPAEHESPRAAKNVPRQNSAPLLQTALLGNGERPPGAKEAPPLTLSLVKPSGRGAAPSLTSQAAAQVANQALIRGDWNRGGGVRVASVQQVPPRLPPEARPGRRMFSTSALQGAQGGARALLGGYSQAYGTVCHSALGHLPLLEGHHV
Here is the method: as §1

The next assay addresses T5, CLK2 (Homo sapiens, UniProt P49760).
T5 construct: lines 1-140) and Reaction Biology
Here is the method: as §1

In the next assay the target is T6, p38g MAPK (Homo sapiens, UniProt P53778).
T6 construct: lines 1-140) and Reaction Biology
T6 sequence (P53778 1-367): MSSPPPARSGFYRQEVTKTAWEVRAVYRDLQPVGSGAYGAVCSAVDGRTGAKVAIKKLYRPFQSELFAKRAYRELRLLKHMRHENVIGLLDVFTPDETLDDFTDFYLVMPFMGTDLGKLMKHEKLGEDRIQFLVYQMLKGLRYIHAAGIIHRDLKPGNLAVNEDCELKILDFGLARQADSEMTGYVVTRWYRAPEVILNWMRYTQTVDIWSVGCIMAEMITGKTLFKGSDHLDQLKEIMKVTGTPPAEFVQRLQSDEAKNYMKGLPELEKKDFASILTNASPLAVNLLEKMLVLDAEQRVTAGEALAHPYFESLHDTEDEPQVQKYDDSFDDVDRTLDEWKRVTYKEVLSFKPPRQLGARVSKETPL
Here is the method: as §1

In another assay the target is T7, EIF2AK3 (Homo sapiens, UniProt Q9NZJ5).
T7 construct: lines 1-140) and Reaction Biology
T7 sequence (Q9NZJ5 30-1116): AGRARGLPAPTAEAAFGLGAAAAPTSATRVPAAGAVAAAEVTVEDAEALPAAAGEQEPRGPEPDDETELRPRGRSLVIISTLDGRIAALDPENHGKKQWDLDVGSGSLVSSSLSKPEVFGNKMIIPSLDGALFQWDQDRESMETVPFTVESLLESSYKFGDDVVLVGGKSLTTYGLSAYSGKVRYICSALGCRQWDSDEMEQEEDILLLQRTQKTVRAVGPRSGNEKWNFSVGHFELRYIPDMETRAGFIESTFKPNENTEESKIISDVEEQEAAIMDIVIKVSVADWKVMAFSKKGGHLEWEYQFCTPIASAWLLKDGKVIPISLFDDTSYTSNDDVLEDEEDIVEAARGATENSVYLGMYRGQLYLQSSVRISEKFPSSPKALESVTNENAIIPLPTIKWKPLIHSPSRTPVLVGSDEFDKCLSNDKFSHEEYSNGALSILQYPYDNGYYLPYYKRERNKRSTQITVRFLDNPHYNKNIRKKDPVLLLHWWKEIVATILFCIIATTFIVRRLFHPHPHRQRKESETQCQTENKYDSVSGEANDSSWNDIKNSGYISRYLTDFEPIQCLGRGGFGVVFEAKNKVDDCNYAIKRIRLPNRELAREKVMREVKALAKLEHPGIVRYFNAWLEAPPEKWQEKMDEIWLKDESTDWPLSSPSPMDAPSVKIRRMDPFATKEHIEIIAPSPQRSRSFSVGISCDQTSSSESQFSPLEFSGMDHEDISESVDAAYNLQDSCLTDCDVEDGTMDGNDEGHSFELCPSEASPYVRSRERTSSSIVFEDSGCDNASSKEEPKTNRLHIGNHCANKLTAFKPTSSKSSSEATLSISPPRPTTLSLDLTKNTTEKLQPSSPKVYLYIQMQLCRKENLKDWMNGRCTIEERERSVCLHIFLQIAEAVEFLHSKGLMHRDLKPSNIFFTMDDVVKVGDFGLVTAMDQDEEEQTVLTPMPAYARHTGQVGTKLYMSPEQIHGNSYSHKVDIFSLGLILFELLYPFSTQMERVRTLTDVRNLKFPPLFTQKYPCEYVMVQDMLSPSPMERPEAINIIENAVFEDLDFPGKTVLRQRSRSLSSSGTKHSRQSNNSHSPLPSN
The procedure: as §1

The structures appear in SMILES notation.

T5 sequence (P49760 whole entry): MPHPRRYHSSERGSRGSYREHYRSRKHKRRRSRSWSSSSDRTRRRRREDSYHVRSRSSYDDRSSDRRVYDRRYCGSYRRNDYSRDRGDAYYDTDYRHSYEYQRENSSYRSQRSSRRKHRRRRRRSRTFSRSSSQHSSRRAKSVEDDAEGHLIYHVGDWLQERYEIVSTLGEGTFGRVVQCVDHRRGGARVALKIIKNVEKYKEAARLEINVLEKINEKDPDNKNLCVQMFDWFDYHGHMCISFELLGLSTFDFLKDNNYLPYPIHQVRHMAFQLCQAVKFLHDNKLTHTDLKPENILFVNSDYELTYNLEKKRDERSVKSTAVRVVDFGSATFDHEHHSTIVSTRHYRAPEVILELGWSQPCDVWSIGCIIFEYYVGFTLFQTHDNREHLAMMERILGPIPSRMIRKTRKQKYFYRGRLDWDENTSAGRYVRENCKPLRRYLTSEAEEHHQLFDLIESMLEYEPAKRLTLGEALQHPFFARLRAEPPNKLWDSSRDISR
T1 sequence (P51812 whole entry): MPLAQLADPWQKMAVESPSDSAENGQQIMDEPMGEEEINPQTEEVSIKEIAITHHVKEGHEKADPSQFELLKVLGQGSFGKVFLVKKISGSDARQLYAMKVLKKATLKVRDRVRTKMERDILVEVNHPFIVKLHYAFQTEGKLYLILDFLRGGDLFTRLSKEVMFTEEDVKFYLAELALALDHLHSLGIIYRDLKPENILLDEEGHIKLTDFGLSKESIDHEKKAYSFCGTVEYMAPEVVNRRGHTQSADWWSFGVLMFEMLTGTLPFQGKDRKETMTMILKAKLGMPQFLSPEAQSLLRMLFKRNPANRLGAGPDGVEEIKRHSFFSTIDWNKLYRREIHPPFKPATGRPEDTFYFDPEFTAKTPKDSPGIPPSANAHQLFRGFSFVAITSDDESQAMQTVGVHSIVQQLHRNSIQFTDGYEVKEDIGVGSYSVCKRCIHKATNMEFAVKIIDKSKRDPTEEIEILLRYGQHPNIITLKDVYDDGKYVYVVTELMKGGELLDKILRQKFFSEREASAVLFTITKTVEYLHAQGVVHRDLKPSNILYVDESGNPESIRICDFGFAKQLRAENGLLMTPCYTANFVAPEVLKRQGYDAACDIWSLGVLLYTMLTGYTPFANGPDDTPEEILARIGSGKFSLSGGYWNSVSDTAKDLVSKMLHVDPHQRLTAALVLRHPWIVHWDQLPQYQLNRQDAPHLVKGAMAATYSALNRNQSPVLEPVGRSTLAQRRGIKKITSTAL
T3 sequence (P45984 whole entry): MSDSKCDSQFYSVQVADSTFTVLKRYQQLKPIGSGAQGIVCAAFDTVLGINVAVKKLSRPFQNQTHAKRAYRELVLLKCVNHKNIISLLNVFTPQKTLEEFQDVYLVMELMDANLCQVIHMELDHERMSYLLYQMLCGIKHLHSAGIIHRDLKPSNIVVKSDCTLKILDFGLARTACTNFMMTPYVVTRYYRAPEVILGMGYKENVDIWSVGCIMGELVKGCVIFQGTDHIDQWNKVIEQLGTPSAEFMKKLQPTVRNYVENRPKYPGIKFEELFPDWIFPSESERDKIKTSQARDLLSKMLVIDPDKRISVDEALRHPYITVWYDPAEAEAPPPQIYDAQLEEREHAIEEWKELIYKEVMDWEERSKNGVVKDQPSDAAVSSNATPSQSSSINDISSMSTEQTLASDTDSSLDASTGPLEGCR

Take `O=C1Nc2ccc(I)cc2/C1=C/c1cc(Br)c(O)c(Br)c1` [GW5074]: the remaining activity at 1 µM at RSK2 was found to be 49%; at PKCz, 88%; at JNK2, 80%; at ERK8, 35%; at CLK2 it was 53%; on p38g MAPK, 114%. Further, on EIF2AK3, the remaining activity at 1 µM is 85%.

Take `Nc1ncc(C(=O)NC2CN(C(=O)C3CC3)C2)c2ccc(-c3cccc(F)c3)nc12` [GNE-495]: the residual activity – broadly, the share of the control activity or signal that is left under treatment – at RSK2 (1 μM) is on record as 62%; at PKCz (1 μM) it was 82%; on JNK2 (1 μM), 100%; at ERK8 (1 μM), 95%; on CLK2 (1 μM), 87%; on p38g MAPK (1 μM), 93%. Further, the residual activity on EIF2AK3 (1 μM) was found to be 100%.

`Oc1ncnc2c1c(-c1ccccc1)cn2-c1ccccc1` [F1386-0303, 5,7-diphenyl-7H-pyrrolo[2,3-d]pyrimidin-4-ol]: the remaining activity at 1 µM was 114% on RSK2; 108% on PKCz; 94% on JNK2; 109% on ERK8; 94% on CLK2; 109% on p38g MAPK. For the same compound, the remaining activity at 1 µM on EIF2AK3 came to 99%.

For `COCCOc1ccc(-c2cn(-c3ccccc3)c3nc[nH]c(=O)c23)cc1` [DMX-5804, 5-[4-(2-methoxy-ethoxy)-phenyl]-7-phenyl-3,7-dihydro-pyrrolo[2,3-d]pyrimidin-4-one], the remaining activity at 1 µM on RSK2 amounted to 93%; on PKCz, 121%; on JNK2 it was 103%; at ERK8, 110%; at CLK2 it was 73%; at p38g MAPK it was 117%. Moreover, the remaining activity at 1 µM at EIF2AK3 came to 110%.

Take `O=C1Cc2c([nH]c3ccc(Br)cc23)-c2ccccc2N1` [Kenpaullone]: the remaining activity at 1 µM was determined as 105% on PKCz; 94% at JNK2; 46% on ERK8; 109% on CLK2; 100% on p38g MAPK; 94% at EIF2AK3.

The values above are taken from article PMC6458995, “MAP4K4 Inhibition Promotes Survival of Human Stem Cell-Derived Cardiomyocytes and Reduces Infarct Size In Vivo” (Cell Stem Cell, 2019).
